This note sets out measurements from ChEMBL document CHEMBL5154660, “Straightforward access to novel mitochondriotropics derived from 2-arylethanol as potent and selective antiproliferative agents” (Eur J Med Chem, 2022).

For one series, the system named is SW1573. Put plainly: Antiproliferative activity against human SW1573 cells assessed as reduction in cell growth. The class given is functional.
A further series deals with HBL-100. Put plainly: Antiproliferative activity against human HBL-100 cells assessed as reduction in cell growth. The class given is functional.
In another series the test system is HeLa. Put plainly: Antiproliferative activity against human HeLa cells assessed as reduction in cell growth. The class given is functional.
In a further series the test system is WiDr. In words: Antiproliferative activity against human WiDr cells assessed as reduction in cell growth. The class given is functional.
In the next series the test system is T47D. In words: Antiproliferative activity against human T47D cells assessed as reduction in cell growth. Type of series: functional.
The subject of the next series is A549. In words: Antiproliferative activity against human A549 cells assessed as reduction in cell growth. Type of series: functional.
Series [1] is described as follows: Antiproliferative activity against human hTERT-BJ cells assessed as reduction in cell growth. The class given is toxicity, cell-based.
The test system of series [2] is NCI-H460. In words: Antiproliferative activity against human multi-drug resistant NCI-H460/R cells overexpressing P-glycoprotein assessed as reduction in cell growth measured after 48 hrs by sulforhodamine B assay. Type of series: functional.
Series [3] has as its system NCI-H460. In words: Cell cycle arrest in human NCI-H460 cells assessed as increase in accumulation at G2/M phase at 600 nM measured after 48 hrs by propidium iodide staining based flow cytometry analysis. Type of series: functional. In general terms: A flow cytometer gives signals particle by particle.
Series [4] can be described thus: Antiproliferative activity against human MRC5 cells assessed as reduction in cell growth measured after 48 hrs by sulforhodamine B assay. The class given is toxicity, cell-based. (In SRB staining, fixed cells bind dye roughly in proportion to their protein.)
For series [5], the system named is NCI-H460. In words: Cell cycle arrest in human NCI-H460 cells assessed as decrease in accumulation at G1 phase at 600 nM measured after 48 hrs by propidium iodide staining based flow cytometry analysis. Type of series: functional.
The subject of series [6] is NCI-H460. Put plainly: Induction of mitochondrial membrane potential loss in human NCI-H460 cells assessed as depolarization of mitochondrial membrane at 600 nM incubated for 48 hrs by JC-1 staining based flow cytometry assay. The class given is functional, cell-based.
Series [7] is described as follows: Resistant index, ratio of GI50 for human multi-drug resistant NCI-H460/R cells to GI50 for human NCI-H460 cells. Type of series: functional.
In series [8] the test system is NCI-H460. Put plainly: Induction of mitochondrial membrane potential loss in human NCI-H460 cells assessed as depolarization of mitochondrial membrane at 600 nM incubated for 24 hrs by JC-1 staining based flow cytometry assay. The class given is functional, cell-based.
The test system of series [9] is NCI-H460. In words: Induction of apoptosis in human NCI-H460 cells assessed as increase in necrotic cells at 600 nM incubated for 48 hrs by annexin-V-FITC and PI staining based flow cytometry analysis (reference value: 2 %). The class given is functional.
For series [10], the system named is NCI-H460. Put plainly: Cell cycle arrest in human NCI-H460 cells assessed as increase in accumulation at S phase at 600 nM measured after 48 hrs by propidium iodide staining based flow cytometry analysis. Type of series: functional.
Series [11] has as its system NCI-H460. In words: Cell cycle arrest in human NCI-H460 cells assessed as increase in accumulation at subG1 phase at 600 nM measured after 48 hrs by propidium iodide staining based flow cytometry analysis. Type of series: functional.
Series [12] deals with NCI-H460. In words: Antiproliferative activity against human multi-drug resistant NCI-H460/R cells overexpressing P-glycoprotein assessed as cell growth inhibition in presence of tariquidar measured after 48 hrs by sulforhodamine B assay. The class given is functional. To be noted: dose 0.01-100 µM.
The subject of series [13] is NCI-H460. In words: Antiproliferative activity against human NCI-H460 cells assessed as reduction in cell growth measured after 48 hrs by sulforhodamine B assay. The class given is functional.

Active and inactive are the calls of the source. The rule behind the calls is not given here.

What is called GI50 is the concentration giving 50% growth inhibition. Consider `c1ccc(CCOCCCCC[P+](c2ccccc2)(c2ccccc2)c2ccccc2)cc1`, for which the GI50 in the series with SW1573 worked out at 330 nM; in the series with HBL-100 it was 440 nM; in the series on HeLa, 310 nM; with WiDr, 220 nM; in the series on T47D it was 220 nM; in the series with A549, 370 nM. In addition, the GI50 in [1] turned out to be 32000 nM.

Consider `[Br-].c1ccc(CCOCCCCCC[P+](c2ccccc2)(c2ccccc2)c2ccccc2)cc1`, for which the GI50 was found to be 160 nM with SW1573; 260 nM in the series with HBL-100; 4600 nM in the series on NCI-H460 [2]; 170 nM in the series on HeLa; 140 nM with WiDr; 610 nM in the series with NCI-H460 [12]. The GI50 in the series with T47D worked out at 140 nM; in the series with A549, 130 nM; with NCI-H460 [13], 570 nM; in [1], 35000 nM. Also, the outcome in the series with NCI-H460 [3], in the series with NCI-H460 [5], in the series with NCI-H460 [6], in the series with NCI-H460 [8], with NCI-H460 [10] and with NCI-H460 [11] was Active. Moreover, the GI50 at 48 h in series [4] was 15300 nM. The RatioGI50 in series [7] is listed as 8.1. The Activity with NCI-H460 [9] worked out at 37%.

With `COc1ccc(CCOCCCCCC[P+](c2ccccc2)(c2ccccc2)c2ccccc2)cc1OC`, the GI50 in the series with SW1573 stood at 490 nM; in the series on HBL-100, 550 nM; with HeLa, 420 nM; in the series with WiDr, 380 nM; in the series with T47D, 460 nM; in the series with A549, 740 nM. Moreover, the GI50 in [1] worked out at 34000 nM.

As for `c1ccc([P+](CCCCCOCCc2ccc3c(c2)OCO3)(c2ccccc2)c2ccccc2)cc1`, the GI50 amounted to 640 nM with SW1573; 680 nM in the series on HBL-100; 540 nM in the series with HeLa; 330 nM with WiDr; 360 nM in the series with T47D; 1400 nM with A549. Moreover, the GI50 in [1] is 37000 nM.

Regarding `c1ccc(COc2ccc(CCOCCCCCCCCCCCC[P+](c3ccccc3)(c3ccccc3)c3ccccc3)cc2OCc2ccccc2)cc1`, the GI50 in the series on SW1573 turned out to be 320 nM; in the series with HBL-100, 240 nM; in the series with HeLa, 330 nM; in the series with WiDr, 450 nM; in the series with T47D, 500 nM; in the series with A549, 170 nM. The GI50 in [1] was 3500 nM.

As to `COc1ccc(CCOCCCCCC[P+](c2ccccc2)(c2ccccc2)c2ccccc2)cc1`, the GI50 came to 220 nM with SW1573; 370 nM in the series on HBL-100; 270 nM with HeLa; 230 nM in the series on WiDr; 200 nM in the series with T47D; 260 nM with A549. For the same molecule, in series [1], the GI50 came to 30000 nM.

Take `COc1ccc(CCOCCCCCCCCCCCC[P+](c2ccccc2)(c2ccccc2)c2ccccc2)cc1`: the GI50 came to 250 nM in the series on SW1573; 340 nM with HBL-100; 320 nM with HeLa; 320 nM in the series on WiDr; 290 nM in the series on T47D; 180 nM in the series with A549. Moreover, in series [1], the GI50 stood at 3600 nM.

Turning to `COc1ccc(CCOCCCCCCCCCCCC[P+](c2ccccc2)(c2ccccc2)c2ccccc2)cc1OC`, the GI50 is 170 nM in the series on SW1573; 260 nM with HBL-100; 210 nM in the series on HeLa; 220 nM in the series with WiDr; 210 nM in the series with T47D; 26 nM in the series on A549. In series [1], the 50% growth inhibitory concentration (GI50) stood at 4300 nM.

As to `c1ccc(COc2ccc(CCOCCCCC[P+](c3ccccc3)(c3ccccc3)c3ccccc3)cc2)cc1`, the GI50 in the series on SW1573 worked out at 89 nM; with HBL-100 it was 84 nM; with HeLa it was 77 nM; in the series on WiDr it was 180 nM; in the series with T47D, 190 nM; with A549 it was 88 nM. For the same molecule, the GI50 in series [1] came to 2900 nM.

On to `COc1ccc(CCOCCCCC[P+](c2ccccc2)(c2ccccc2)c2ccccc2)cc1`, for which the GI50 with SW1573 was 370 nM; in the series on HBL-100 it was 520 nM; in the series on HeLa, 390 nM; with WiDr it was 330 nM; in the series with T47D it was 310 nM; in the series on A549 it was 400 nM. The GI50 in [1] was 28000 nM.

On to `c1ccc(COc2ccc(CCOCCCCCC[P+](c3ccccc3)(c3ccccc3)c3ccccc3)cc2)cc1`, for which the concentration for 50% growth inhibition (GI50) was 120 nM with SW1573; 250 nM in the series with HBL-100; 180 nM in the series on HeLa; 240 nM in the series with WiDr; 200 nM in the series on T47D; 120 nM in the series on A549. For the same molecule, the concentration for 50% growth inhibition (GI50) in series [1] came to 3100 nM.

As for `c1ccc(COc2ccc(CCOCCCCC[P+](c3ccccc3)(c3ccccc3)c3ccccc3)cc2OCc2ccccc2)cc1`, the GI50 with SW1573 was 230 nM; in the series with HBL-100, 200 nM; in the series on HeLa, 270 nM; with WiDr, 310 nM; in the series on T47D, 310 nM; in the series with A549 it was 130 nM. In addition, the GI50 in series [1] is 3500 nM.

`c1ccc(COc2ccc(CCOCCCCCCCCCCCC[P+](c3ccccc3)(c3ccccc3)c3ccccc3)cc2)cc1`: the GI50 in the series with SW1573 came to 420 nM; in the series on HBL-100, 370 nM; with HeLa, 600 nM; in the series with WiDr, 770 nM; in the series with T47D, 570 nM; in the series with A549 it was 450 nM. The 50% growth inhibitory concentration (GI50) in series [1] was found to be 3300 nM.

In the case of `[Br-].c1ccc([P+](CCCCCCOCCc2ccc3c(c2)OCO3)(c2ccccc2)c2ccccc2)cc1`, the GI50 with SW1573 was 350 nM; with HBL-100, 580 nM; with NCI-H460 [2] it was 3600 nM; with HeLa it was 350 nM; with WiDr, 240 nM; with NCI-H460 [12], 590 nM. Moreover, the GI50 turned out to be 270 nM in the series with T47D, 870 nM with A549, 600 nM in the series on NCI-H460 [13] and 43000 nM in series [1]. The outcome in the series on NCI-H460 [3], in the series with NCI-H460 [5], with NCI-H460 [6], in the series on NCI-H460 [8], with NCI-H460 [10] and in the series on NCI-H460 [11] was Active. Besides, the GI50 at 48 h in [4] worked out at 62700 nM. For the same molecule, the RatioGI50 in series [7] amounted to 6. Further, in the series on NCI-H460 [9], the Activity worked out at 27%.

`COc1ccc(CCOCCCCC[P+](c2ccccc2)(c2ccccc2)c2ccccc2)cc1OC`: the GI50 worked out at 2100 nM with SW1573; 4200 nM in the series with HBL-100; 2300 nM in the series on HeLa; 1500 nM with WiDr; 2000 nM with T47D; 3400 nM in the series on A549. Also, the concentration for 50% growth inhibition (GI50) in series [1] came out at 57000 nM.

On to `O=c1[nH]cc(F)c(=O)[nH]1` [FLUOROURACIL], for which the GI50 in the series with SW1573 was found to be 3300 nM; in the series with HBL-100 it was 4400 nM; in the series on HeLa, 16000 nM; in the series on WiDr, 49000 nM; in the series on T47D it was 43000 nM; with A549, 2200 nM. Also, the GI50 in series [1] was 5500 nM.

In the case of `c1ccc(CCOCCCCCCCCCCCC[P+](c2ccccc2)(c2ccccc2)c2ccccc2)cc1`, the GI50 in the series on SW1573 is 250 nM; in the series with HBL-100, 290 nM; in the series on HeLa, 330 nM; in the series on WiDr it was 260 nM; in the series on T47D, 270 nM; in the series on A549, 170 nM. For the same molecule, the GI50 in series [1] was determined as 4400 nM.

Take `c1ccc(COc2ccc(CCOCCCCCC[P+](c3ccccc3)(c3ccccc3)c3ccccc3)cc2OCc2ccccc2)cc1`: the GI50 in the series on SW1573 is 350 nM; with HBL-100, 470 nM; in the series with HeLa it was 320 nM; with WiDr, 1000 nM; with T47D, 810 nM; in the series with A549 it was 250 nM. Moreover, the GI50 in [1] was 3300 nM.

Regarding `c1ccc([P+](CCCCCCCCCCCCOCCc2ccc3c(c2)OCO3)(c2ccccc2)c2ccccc2)cc1`, the GI50 in the series with SW1573 came to 170 nM; in the series on HBL-100, 210 nM; with HeLa, 220 nM; with WiDr it was 190 nM; in the series on T47D, 180 nM; with A549, 59 nM. The concentration for 50% growth inhibition (GI50) in [1] worked out at 4600 nM.
